Source: patent US10947252B2, “Inhibitors of KEAP1-Nrf2 protein-protein interaction” (Janssen Pharmaceutica NV, priority 2018, dated 2021)
Where a name gives a salt, the structure may show the parent alone.

Experiments:
[1] = biological target: Kelch domain of human KEAP1 (321-624 aa) (Homo sapiens (Human), UniProt Q14145); assay: KEAP1 KELCH ThermoFluor binding assay; settings: KEAP Kelch […], 1,8-ANS, pH 7.0, average of results obtained, read-out: Tf Kd;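 note: Ligand-induced melting temperature shift of E. coli-expressed KEAP1 Kelch protein, Kd estimated from concentration-response curves of ΔTm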
Kelch domain of human KEAP1 (321-624 aa), sequence (Q14145 321-624): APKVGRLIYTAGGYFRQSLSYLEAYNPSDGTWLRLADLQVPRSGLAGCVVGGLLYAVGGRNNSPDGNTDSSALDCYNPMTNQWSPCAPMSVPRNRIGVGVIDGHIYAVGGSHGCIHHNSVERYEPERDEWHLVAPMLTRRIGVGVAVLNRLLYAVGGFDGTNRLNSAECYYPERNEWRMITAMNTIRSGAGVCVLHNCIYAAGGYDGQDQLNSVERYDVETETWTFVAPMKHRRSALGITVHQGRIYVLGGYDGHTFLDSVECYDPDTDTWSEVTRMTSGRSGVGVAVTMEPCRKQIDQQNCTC

[2] = tested on: Glo-Response ARE-luc2P HEK293 cell line; assay: ARE luciferase reporter cell-based assay; settings: Homo sapiens, HEK293, 24 h, average of results obtained;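 note: luciferase signal tracks Nrf2 activation of the ARE once compounds disrupt KEAP1-Nrf2 binding, read with One-Glo reagent, DMSO serving as low control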
Protocol: The ARE assay utilizes a luciferase reporter cell line where the signal is proportional to NrF2 activation of the ARE. The cell line is commercially available from Promega and was prepared by stably transfecting HEK293 cells with a vector (pGL4.11) which contains the ARE response element upstream of a minimal promoter. The promoter drives expression of luc2 firefly luciferase gene. Upon disruption of KEAP1-Nrf2 binding by compound, Nrf2 translocates into the nucleus where it binds to the ARE and activates transcription of luciferase.
The materials used in this ARE assay are as follows: Glo-Response ARE-luc2P HEK293 cell line and One-Glo Luciferase Assay System were purchased from Promega (Madison, Wis.). Dulbecco's Modified Eagle medium ((DMEM), low glucose, GlutaMAX, pyruvate), fetal bovine serum (certified, heat inactivated), hygromycin B, Dulbecco's phosphate-buffered saline were purchased from Life Technologies (Grand Island, N.Y.). Penicillin, streptomycin solution (100×) and 0.05% trypsin-EDTA were purchased from Corning (Manassas, Va.). DMSO was purchased from EMD Millipore.
The ARE assay protocol is as follows: cells were maintained in growth medium (DMEM+10% FBS, 200 μg/mL hygromycin B, p-s) between 20-90% confluency by splitting twice per week. One day before the assay, cells were trypsinized, counted to determine viable cell count, and re-suspended in assay medium (DMEM+10% FBS, p-s) at 250,000 cells/mL. […] 100% DMSO was used as the low control. A 11-point dose series of the control compound was included on every plate. Compounds were spotted to an intermediate plate (Greiner #781280 V-bottom 384 well plate) using the Echo acoustic dispenser (Labscyte San Jose, Calif.). Spot size was 240 nL.
On the day of the assay, 60 mL per well of assay medium was added to the pre-spotted plate to make 2× compound stocks using the Combi (Thermo Waltham, Mass.). Compound and medium were mixed on the Janus and 20 mL of 2×compound stock was added to the cell plate which already contained 20 mL of assay medium from cell plating. […] The plates were returned to the tissue culture incubator for 24 hours.
The next day, luciferase activity was measured according to the manufacturer's protocol for One-Glo luciferase reagent. The plates were removed from the incubator and allowed to equilibrate to room temperature for 30 min. Forty microliters of One-Glo reagent (equilibrated to room temperature) was added per well using the Combi. The plates were mixed on an orbital shaker for 3 min. Luminescence was read on the BMG Pherastar multiplate reader (Cary, N.C.) using the luminescence protocol (1 sec interval).
The dose-response data were analyzed in Genedata Screener using 4PL nonlinear regression model. Raw luminescence counts as well as normalized values were used for data analysis.

| Structure (SMILES) | Kd [1] [nM] | EC50 [2] [nM] |
| --- | --- | --- |
| Cc1ccc([C@H](c2ccn3c(C(F)(F)F)nnc3c2C)C(C)(C)C(=O)O)cc1CN1CC2(CCOCC2)Oc2nc(N[C@@H](C)CCO)ccc2S1(=O)=O (single isomer, unassigned) [Example 122, (*R)-3-(3-((7′-(((S)-4-Hydroxybutan-2-yl)amino)-1′,1′-dioxido-2,3,5,6-tetrahydrospiro[pyran-4,4′-pyrido[2,3-b][1,4,5]oxathiazepin]-2′(3′H)-yl)methyl)-4-methylphenyl)-2,2-dimethyl-3-(8-methyl-3-(trifluoromethyl)-[1,2,4[triazolo[4,3-a]pyridine-7-yl)propanoic Acid] | 8930 | 13000 |
| CCn1nnc2c(C)c([C@@H](CC(=O)O)c3ccc(C)c(CN4C[C@H]5CCCN5c5ncccc5S4(=O)=O)c3)ccc21 (single isomer, unassigned) [Example 21, (*S)-3-(3-(((R)-5,5-Dioxido-7a,8,9,10-tetrahydropyrido[2,3-f]pyrrolo[2,1-d][1,2,5]thiadiazepin-6(7H)-yl)methyl)-4-methylphenyl)-3-(1-ethyl-4-methyl-1H-benzo[d][1,2,3]triazol-5-yl)propanoic Acid] | 0.273 | 28 |
| Cc1ccc([C@@H](CC(=O)O)c2ccn3c(C(F)(F)F)nnc3c2C)nc1CN1C[C@@H]2CCCCN2c2ncc(C#N)cc2S1(=O)=O (single isomer, unassigned) [Example 34, (*S)-3-(6-(((*S)-3-Cyano-5,5-dioxido-7,7a,8,9,10,11-hexahydro-6H-dipyrido[2,1-d:2′,3′-f][1,2,5]thiadiazepin-6-yl)methyl)-5-methylpyridin-2-yl)-3-(8-methyl-3-(trifluoromethyl)-[1,2,4]triazolo[4,3-a]pyridin-7-yl)propanoic Acid] | < 1 | 119 |
| Cc1ccc([C@H](CC(=O)O)c2ccn3c(C(F)(F)F)nnc3c2C)cc1CN1CC2(CC2)Oc2nc(O)ccc2S1(=O)=O (single isomer, unassigned) [Example 103, (*S)-3-(3-((7′-Hydroxy-1′,1′-dioxidospiro[cyclopropane-1,4′-pyrido[2,3,-b][1,4,5]oxathiazepin]-2′(3′H)-yl)methyl)-4-methylphenyl)-3-(8-methyl-3-(trifluoromethyl)-[1,2,4]triazolo[4,3-a]pyridine-7-yl)propanoic Acid] | 1.6 | 9130 |
| Cc1cnc2c(c1)S(=O)(=O)N(Cc1cc([C@@H](c3ccn4c(C(F)(F)F)nnc4c3C)C(C)(C)C(=O)O)ncc1C)CC1(CCOCC1)O2 (single isomer, unassigned) [Example 591, (*S)-2,2-Dimethyl-3-(8-methyl-3-(trifluoromethyl)-[1,2,4]triazolo[4,3-a]pyridin-7-yl)-3-(5-methyl-4-((8′-methyl-1′,1′-dioxido-2,3,5,6-tetrahydrospiro[pyran-4,4′-pyrido[2,3-b][1,4,5]oxathiazepin]-2′(3′H)-yl)methyl)pyridin-2-yl)propanoic Acid] | < 1 | 26.1 |
| CC[C@@H]1CN(Cc2cc([C@H](CC(=O)O)c3ccn4c(C(F)(F)F)nnc4c3)ccc2C)S(=O)(=O)c2cccnc2O1 (single isomer, unassigned) [Example 257, (*S)-3-(3-(((R)-4-Ethyl-1,1-dioxido-3,4-dihydro-2H-pyrido[2,3-b][1,4,5]oxathiazepin-2-yl)methyl)-4-methylphenyl)-3-(3-(trifluoromethyl)-[1,2,4]triazolo[4,3-a]pyridin-7-yl)propanoic Acid] | < 1 | 574 |
| CCn1nnc2c(C)c(C(CC(=O)O)c3ccc(C)c(CN4C[C@@H]5CCCN5c5ncccc5S4(=O)=O)c3)ccc21 (mixture of isomers) [Example 155, (R/S)-3-(3-(((S)-5,5-Dioxido-7a,8,9,10-tetrahydropyrido[2,3-f]pyrrolo[2,1-d][1,2,5]thiadiazepin-6(7H)-yl)methyl)-4-methylphenyl)-3-(1-ethyl-4-methyl-1H-benzo[d][1,2,3]triazol-5-yl)propanoic Acid] | < 1 | 6.1 |
| Cc1ccc([C@H](CC(=O)O)c2ccn3c(C(F)(F)F)nnc3c2C)nc1CN1C[C@@H]2CCCCN2c2ncc(C#N)cc2S1(=O)=O (single isomer, unassigned) [Example 37, (*R)-3-(6-(((*S)-3-Cyano-5,5-dioxido-7,7a,8,9,10,11-hexahydro-6H-dipyrido[2,1-d:2′,3′-f][1,2,5]thiadiazepin-6-yl)methyl)-5-methylpyridin-2-yl)-3-(8-methyl-3-(trifluoromethyl)-[1,2,4]triazolo[4,3-a]pyridin-7-yl)propanoic Acid] | < 1 | 25.7 |
| Cc1ccc([C@@H](CC(=O)O)c2ccc3c(nnn3CC3CC3)c2C)cc1CN1CC2(COC2)Oc2ncccc2S1(=O)=O (single isomer, unassigned) [Example 70, (*R)-3-(1-(Cyclopropylmethyl)-4-methyl-1H-benzo[d][1,2,3]triazol-5-yl)-3-(3-((1′,1′-dioxidospiro[oxetane-3,4′-pyrido[2,3-b][1,4,5]oxathiazepin-2′(3′H)-yl)methyl)-4-methylphenyl)propanoic Acid] | 1.9 | 180 |
| Cc1cc2cc([C@@H](CC(=O)O)c3ccc(C)c(CN4C[C@@H]5CCCCN5c5ncccc5S4(=O)=O)c3)n(C)c2nn1 (single isomer, unassigned) [Example 441, (*S)-3-(3,7-Dimethyl-7H-pyrrolo[2,3-c]pyridazin-6-yl)-3-(3-(((*S)-5,5-dioxido-7,7a,8,9,10,11-hexahydro-6H-dipyrido[2,1-d:2′,3′-f][1,2,5]thiadiazepin-6-yl)methyl)-4-methylphenyl)propanoic Acid] | 60.3 | > 20000 |
| CCn1nnc2c(C)c([C@H](c3ccc(C)c(CN4CC5(CCOCC5)Oc5ncccc5S4(=O)=O)n3)C(C)(C)C(=O)O)ccc21 (single isomer, unassigned) [Example 555, (*S)-3-(6-((1′,1′-Dioxido-2,3,5,6-tetrahydrospiro[pyran-4,4′-pyrido[2,3-b][1,4,5]oxathiazepin]-2′(3′H)-yl)methyl)-5-methylpyridin-2-yl)-3-(1-ethyl-4-methyl-1H-benzo[d][1,2,3]triazol-5-yl)-2,2-dimethylpropanoic Acid] | < 1 | 1.42 |
| Cc1ccc([C@H](CC(=O)O)c2ccc3c(nnn3CC3CC3)c2C)cc1CN1CC2(COC2)Oc2ccccc2S1(=O)=O (single isomer, unassigned) [Example 77, (*S)-3-(1-(Cyclopropylmethyl)-4-methyl-1H-benzo[d][1,2,3]triazol-5-yl)-3-(3-((1′,1′-dioxidospiro[benzo[b][1,4,5]oxathiazepin-4,3′-oxetan]-2,(3H)-yl)methyl)-4-methylphenyl)propanoic Acid] | 0.42 | 15.7 |
| Cc1cnc2c(c1)S(=O)(=O)N(Cc1cc([C@@H](c3ccn4c(C(F)(F)F)nnc4c3C)C(C)(C)C(=O)O)cnc1C)CC1(CCOCC1)O2 (single isomer, unassigned) [Example 586, (*R)-2,2-Dimethyl-3-(8-methyl-3-(trifluoromethyl)-[1,2,4]triazolo[4,3-a]pyridin-7-yl)-3-(6-methyl-5-((8′-methyl-1′,1′-dioxido-2,3,5,6-tetrahydrospiro[pyran-4,4′-pyrido[2,3-b][1,4,5]oxathiazepin]-2′(3′H)-yl)methyl)pyridin-3-yl)propanoic Acid] | 6380 | > 20000 |
| CCn1nnc2c(C)c(C(CC(=O)O)c3ccc(C)c(CN4C[C@H]5CCCN5c5ncccc5S4(=O)=O)c3)ccc21 (stereo partly drawn) [Example 20, 3-(3-(((R)-5,5-Dioxido-7a,8,9,10-tetrahydropyrido[2,3-f]pyrrolo[2,1-d][1,2,5]thiadiazepin-6(7H)-yl)methyl)-4-methylphenyl)-3-(1-ethyl-4-methyl-1H-benzo[d][1,2,3]triazol-5-yl)propanoic Acid and its Trifluoroacetic Acid Salt] | 0.081 | 6.3 |
| CC[C@@H]1CN(Cc2cc(C(CC(=O)O)c3ccn4c(C(F)(F)F)nnc4c3)ccc2C)S(=O)(=O)c2cccnc2O1 (stereo partly drawn) [Example 256, 3-(3-(((R)-4-Ethyl-1,1-dioxido-3,4-dihydro-2H-pyrido[2,3-b][1,4,5]oxathiazepin-2-yl)methyl)-4-methylphenyl)-3-(3-(trifluoromethyl)-[1,2,4]triazolo[4,3-a]pyridin-7-yl)propanoic Acid] | < 1 | 379 |
| Cc1ccc([C@H](c2ccn3c(C(F)(F)F)nnc3c2C)C(C)(C)C(=O)O)cc1CN1CC2(CCOCC2)Oc2nc(OCCN3CCNCC3)ccc2S1(=O)=O (single isomer, unassigned) [Example 368, (*R)-3-(3-((1′,1′-Dioxido-7′-(2-(piperazin-1-yl)ethoxy)-2,3,5,6-tetrahydrospiro[pyran-4,4′-pyrido[2,3-b][1,4,5]oxathiazepin]-2′(3′H)-yl)methyl)-4-methylphenyl)-2,2-dimethyl-3-(8-methyl-3-(trifluoromethyl)-[1,2,4]triazolo[4,3-a][pyridine-7-yl)propanoic Acid] | < 1 | 256 |
| Cc1cc2cc([C@H](CC(=O)O)c3ccc(C)c(CN4C[C@H]5CCCN5c5ncccc5S4(=O)=O)c3)n(C)c2nn1 (single isomer, unassigned) [Example 436, (*R)-3-(3,7-Dimethyl-7H-pyrrolo[2,3-c]pyridazin-6-yl)-3-(3-(((R)-5,5-dioxido-7a,8,9,10-tetrahydropyrido[2,3-f]pyrrolo[2,1-d][1,2,5]thiadiazepin-6(7H)-yl)methyl)-4-methylphenyl)propanoic Acid] | < 1 | 2230 |
| Cc1ccc([C@@H](CC(=O)O)c2ccn3c(C(F)(F)F)nnc3c2C)cc1CN1C[C@@H]2CCCCN2c2ncccc2S1(=O)=O (single isomer, unassigned) [Example 291, (*R)-3-(3-(((*S)-5,5-Dioxido-7,7a,8,9,10,11-hexahydro-6H-dipyrido[2,1-d:2′,3′-][1,2,5]thiadiazepin-6-yl)methyl)-4-methylphenyl)-3-(8-methyl-3-(trifluoromethyl)-[1,2,4]triazolo[4,3-a]pyridin-7-yl)propanoic Acid] | < 1 | 86.8 |
